# Values of other authors in the PKSmart pharmacokinetics tables (Seal et al. 2025).
# Where a SMILES comes first, the peptide text is derived from it.
# Test: Lombardo, Berellini, Obach 2018, Drug Metab Dispos 46:1466, doi 10.1124/dmd.118.082966
# Conditions: human; for MRT / Vd / clearance / half-life: in vivo, iv; for fraction unbound: plasma
SMILES,MRT,Vd,clearance,half-life,fraction unbound
CCN(CC)C(=O)N[C@H]1C=C2c3cccc4[nH]cc(c34)C[C@H]2N(C)C1,2.17 h,1.73 L/kg,13.3 mL/min/kg,108 min,–
CC(=O)NC(CO)C(=O)NC(CC(=O)O)C(=O)NC(CCCCN)C(=O)N1CCCC1C(=O)O (stereo unspecified) (Ac-SDKP-OH; configuration not given here),–,–,18.7 mL/min/kg,4.8 min,–
CN[C@@H]1[C@@H](O)[C@@H](O[C@@H]2[C@@H](O)[C@H](O[C@H]3O[C@H]([C@@H](C)N)CC[C@H]3N)[C@@H](N)C[C@H]2N)OC[C@]1(C)O,–,–,–,–,1
NS(=O)(=O)c1cc(C2(O)NC(=O)c3ccccc32)ccc1Cl (stereo unspecified),43 h,3.9 L/kg,1.5 mL/min/kg,2160 min,–
CN(C)Cc1c(C(=O)NCCOc2ccc(C(O)=NO)cc2)oc2ccccc12,2.65 h,2.6 L/kg,16.3 mL/min/kg,354 min,–
Cn1nnnc1SCC1=C(C(=O)O)N2C(=O)C(=NC(=O)C(NOCC(=O)O)c3cc[nH]n3)[C@H]2SC1 (stereo partly specified),1.8 h,0.22 L/kg,1.83 mL/min/kg,79.8 min,–
CCOC(=O)Nc1ccc(NCc2ccc(F)cc2)nc1N,11 h,1.1 L/kg,1.6 mL/min/kg,510 min,–
CC[C@@]1(O)C(=O)OCc2c1cc1n(c2=O)Cc2c-1nc1ccc(O)cc1c2[Si](C)(C)C(C)(C)C,1.3 h,0.47 L/kg,6 mL/min/kg,84 min,–
COC1C(=O)C(C)C[C@H](C)C=CC=CC=C(C)[C@@H](OC)C[C@@H]2CC[C@@H](C)[C@@](O)(O2)C(=O)C(=O)N2CCCCC2C(=O)O[C@H]([C@H](C)C[C@@H]2CC[C@@H](OP(C)(C)=O)[C@H](OC)C2)CC(=O)C(C)=CC(C)[C@H]1O (stereo partly specified),48.5 h,3.2 L/kg,1.1 mL/min/kg,2780 min,–
COc1cc(F)ccc1Cn1ccc2c3c(ncc21)C(=O)N(O)CC3,3.95 h,5.7 L/kg,24 mL/min/kg,228 min,0.08
O=c1[nH]c(=O)n([C@@H]2O[C@H](CO)[C@H](O)[C@H](O)[C@H]2O)cc1F,3.95 h,0.33 L/kg,1.38 mL/min/kg,253 min,–
CNC(=O)Nc1c(OCCN2CCCC2)c(OC)c2occc2c1OC,4.2 h,0.8 L/kg,3.2 mL/min/kg,300 min,–
O=C(O)C1=C(CSc2nnnn2CS(=O)(=O)O)CS[C@@H]2C(NC(=O)C(O)c3ccccc3)C(=O)N12 (stereo partly specified),5.8 h,0.14 L/kg,0.38 mL/min/kg,306 min,0.02
COc1ccc(/C=C\c2cc(OC)c(OC)c(OC)c2)cc1OP(=O)(O)O,0.3 h,0.11 L/kg,5.86 mL/min/kg,28.2 min,0.23
C=CCNc1c(O)cc2c(O)c1C=C(C)C[C@H](OC)[C@H](O)[C@@H](C)/C=C(\C)[C@H](OC(N)=O)[C@@H](OC)C=CC=C(C)C(=O)N2,3.27 h,2 L/kg,10.2 mL/min/kg,180 min,–
C[C@@H](NCCc1ccc(O)cc1)[C@@H](O)c1ccc(O)cc1,2.4 h,4.4 L/kg,31 mL/min/kg,156 min,0.64
C#C[C@]1(O)CC[C@H]2[C@@H]3CCC4=Cc5oncc5C[C@]4(C)[C@H]3CC[C@@]21C,5.49 h,5.18 L/kg,15.7 mL/min/kg,139 min,–
CCCCCCCC(=O)N[C@H](CN1CCCC1)[C@H](O)c1ccc2c(c1)OCCO2,–,–,20.9 mL/min/kg,462 min,0.21
N=C(N)c1ccc(C(=O)NC(Cc2ccc(O)cc2)C(=O)N2CCC(OCC(=O)O)CC2)cc1 (stereo unspecified),2.5 h,0.29 L/kg,–,126 min,0.94
CN(C)CCCN1c2ccccc2CCc2cc(O)ccc21,12 h,6.6 L/kg,9.2 mL/min/kg,600 min,0.36
CNC(=O)Oc1ccc2c(c1)[C@@]1(C)CCN(C)[C@@H]1N2C,0.9 h,3.9 L/kg,72 mL/min/kg,60 min,0.64
Cc1cc(F)ccc1[C@H]1CNCCN1C(=O)N(C)[C@H](C)c1cc(C(F)(F)F)cc(C(F)(F)F)c1,12.8 h,3.8 L/kg,5.09 mL/min/kg,602 min,–
Cc1cnc(C(=O)NC2CCCCC/C=C\[C@@H]3C[C@@]3(C(=O)NS(=O)(=O)C3CC3)NC(=O)C3C[C@@H](Oc4nc5ccccc5c5ccccc45)CN3C2=O)cn1 (stereo partly specified),3.96 h,1.37 L/kg,5.74 mL/min/kg,523 min,0.022

SMILES,MRT,Vd,clearance,half-life,fraction unbound
OC[C@@H](O)[C@@H](O)[C@H](O)[C@H](O)CO,3.5 h,0.24 L/kg,1.2 mL/min/kg,282 min,–
COc1cc(CC(=O)NCC(=O)N(CCC(=O)O)Cc2ccc(OC)c(OC)c2)ccc1NC(=O)Nc1ccccc1C,0.38 h,0.25 L/kg,11 mL/min/kg,96 min,–
CN1C(=O)C(O)N=C(c2ccccc2Cl)c2cc(Cl)ccc21 (stereo unspecified),6.7 h,1.6 L/kg,4 mL/min/kg,294 min,–
CCC1=C[C@@H]2CN(CCc3c([nH]c4ccccc34)[C@@](C(=O)OC)(c3cc4c(cc3OC)N(C)[C@H]3[C@@](O)(C(=O)OC)[C@H](OC(C)=O)[C@]5(CC)C=CCN6CC[C@]43[C@@H]65)C2)C1,17 h,12 L/kg,12 mL/min/kg,1080 min,–
C[C@H]1CN(CC(Cc2ccccc2)C(=O)NCC(=O)O)CC[C@@]1(C)c1cccc(O)c1 (stereo partly specified),1.24 h,0.43 L/kg,5.84 mL/min/kg,318 min,0.2
CN[C@@H]1[C@@H](O)[C@@H](O[C@@H]2[C@@H](O)[C@H](O[C@H]3OC(CN)=CC[C@H]3N)[C@@H](N)C[C@H]2N)OC[C@]1(C)O,3.2 h,0.19 L/kg,1 mL/min/kg,144 min,0.15
S=P(N1CC1)(N1CC1)N1CC1,4 h,1.6 L/kg,6.7 mL/min/kg,162 min,–
C#CCN(C)C(C)Cc1ccccc1 (stereo unspecified),1.6 h,1.9 L/kg,20 mL/min/kg,78 min,–
CN(C)C/C=C(\c1ccc(Br)cc1)c1cccnc1,8.22 h,6.8 L/kg,13.8 mL/min/kg,376 min,0.086
CCCCc1oc2ccc(NS(C)(=O)=O)cc2c1C(=O)c1ccc(OCCCN(CCCC)CCCC)cc1,10 h,20 L/kg,33.3 mL/min/kg,960 min,0.02
C[C@@H](O[C@H]1OCCN(Cc2n[nH]c(=O)[nH]2)[C@H]1c1ccc(F)cc1)c1cc(C(F)(F)F)cc(C(F)(F)F)c1,–,0.94 L/kg,–,780 min,–
CC1(C)S[C@@H]2C(NC(=O)C(c3ccccc3)S(=O)(=O)O)C(=O)N2C1C(=O)O (stereo partly specified),1.6 h,0.15 L/kg,1.6 mL/min/kg,72 min,0.5
CCN(CC)CC#CCOC(=O)C(O)(c1ccccc1)C1CCCCC1 (stereo unspecified),2.7 h,0.85 L/kg,5.1 mL/min/kg,432 min,0.0034
CC(=O)NC[C@H]1CN(c2ccc(N3CCOCC3)c(F)c2)C(=O)O1,5.4 h,0.58 L/kg,1.8 mL/min/kg,270 min,–
CS(=O)(=O)OCCN(CCBr)c1c(C(=O)NCCOP(=O)(O)O)cc([N+](=O)[O-])cc1[N+](=O)[O-],0.32 h,0.86 L/kg,44.8 mL/min/kg,6 min,–
CCN(CC)CCN1C(=O)c2c(c3c4cccc(Cl)c4n([C@@H]4O[C@H](CO)[C@@H](OC)[C@H](O)[C@H]4O)c3c3[nH]c4c(Cl)cccc4c23)C1=O,45.4 h,8.9 L/kg,3.13 mL/min/kg,2930 min,–
C[C@H]1COc2c(N3CCN(C)CC3)c(F)cc3c(=O)c(C(=O)O)cn1c23,11 h,1.2 L/kg,1.9 mL/min/kg,528 min,–
O=C(NC[C@H](O)CO)c1ccncc1Nc1ccc(I)cc1F,3.55 h,1.8 L/kg,8.71 mL/min/kg,275 min,–
C#CCN(Cc1cc2c(=O)nc(C)[nH]c2cc1C)c1ccc(C(=O)NC(CCc2nnn[nH]2)C(=O)O)c(F)c1 (stereo unspecified),30.4 h,0.53 L/kg,0.29 mL/min/kg,4710 min,0.01
O=C(Nc1c(Cl)cncc1Cl)c1ccc(OC(F)F)c(OCC2CC2)c1,–,–,–,–,0.01
CCCCNC(=N)NC(=N)N,4.66 h,1.84 L/kg,6.58 mL/min/kg,277 min,–
COc1ccc(CNC[C@@H](O)COc2ccc3[nH]c(=O)ccc3c2)cc1OC,3.2 h,1.6 L/kg,8.9 mL/min/kg,198 min,–
CCOc1ccc(CC2=NCCc3cc(OCC)c(OCC)cc32)cc1OCC,9 h,1.9 L/kg,3.5 mL/min/kg,558 min,–

SMILES,MRT,Vd,clearance,half-life,fraction unbound
O=c1[nH]cnc2c([C@@H]3N[C@H](CO)[C@@H](O)[C@H]3O)c[nH]c12,–,–,1.56 mL/min/kg,696 min,–
COc1cc([S+](C)O)ccc1-c1nc2cnccc2[n-]1 (stereo unspecified),1.3 h,1.67 L/kg,20.7 mL/min/kg,72 min,0.48
CC(=O)NC(CSSCC(N)C(=O)O)C(=O)NC(C)C(=O)NC(CCCNC(=N)N)C(=O)NC(CCCNC(=N)N)C(=O)NC(CCCNC(=N)N)C(=O)NC(C)C(=O)NC(CCCNC(=N)N)C(N)=O (stereo unspecified),19.9 h,1.98 L/kg,1.67 mL/min/kg,–,–
CC(C)(S)C(N)C(=O)O (stereo unspecified),1.97 h,1.26 L/kg,10.7 mL/min/kg,182 min,0.12
CCCC(=O)N1CCCN(c2nc(N)c3cc(OC)c(OC)cc3n2)CC1,2.5 h,0.72 L/kg,4.8 mL/min/kg,120 min,0.06
CC[C@H]1OC(=O)C(C)[C@@H](O[C@H]2C[C@@](C)(OC)[C@@H](O)[C@H](C)O2)[C@H](C)[C@@H](O[C@@H]2O[C@H](C)C[C@H](N(C)C)[C@H]2O)[C@](C)(O)C[C@@H](C)CN(C)[C@H](C)[C@@H](O)[C@]1(C)O (stereo partly specified),57 h,33 L/kg,10 mL/min/kg,4140 min,–
Cc1cc(NC(=O)C2C(=O)c3ccccc3S(=O)(=O)N2C)no1 (stereo unspecified),44 h,0.19 L/kg,0.07 mL/min/kg,1980 min,–
C[C@@H]1C[C@@H]2[C@@H]3CC=C4CC(=O)C=C[C@]4(C)C3=CC[C@]2(C)C1C(=O)CN1CCN(c2cc(N3CCCC3)nc(N3CCCC3)n2)CC1 (stereo partly specified),23.2 h,9.8 L/kg,7 mL/min/kg,2960 min,0.006
CN(C)CC/C=C1\c2ccccc2COc2ccccc21,15 h,12 L/kg,14 mL/min/kg,900 min,–
CC(C)=CCN1CC[C@]2(C)c3cc(O)ccc3C[C@H]1C2C (stereo partly specified),–,–,–,–,0.39
CN[C@@H]1CCc2[nH]c3ccc(C(N)=O)cc3c2C1,22 h,3.6 L/kg,2.5 mL/min/kg,1440 min,–
CC(C(=O)O)c1ccc2c(c1)[nH]c1ccc(Cl)cc12 (stereo unspecified),7.2 h,0.22 L/kg,0.51 mL/min/kg,594 min,0.001
C#C[C@@]1(O)[C@@H](CO)O[C@H](n2ccc(N)nc2=O)[C@@H]1O,11.7 h,1.1 L/kg,1.6 mL/min/kg,654 min,–
Cc1ccnc2c1NC(=O)c1cccnc1N2C1CC1,81 h,1.3 L/kg,0.3 mL/min/kg,3180 min,–
COc1c(N2CCC/C(=C(\F)CN)C2)c(F)cc2c(=O)c(C(=O)O)cn(C3CC3)c12,24.2 h,1.13 L/kg,0.78 mL/min/kg,1180 min,0.34
Nc1nc(=O)c2ncn(CCC(CO)CO)c2[nH]1,2.4 h,1.1 L/kg,8.4 mL/min/kg,126 min,–
CSCC(NC(=O)COc1cccc2cnccc12)C(=O)NC(Cc1ccccc1)C(O)C(=O)N1CSCC1C(=O)NC(C)(C)C (stereo unspecified),0.17 h,0.11 L/kg,10.5 mL/min/kg,26.4 min,–
CCC1C(=O)N(C)c2cnc(Nc3ccc(C(=O)N[C@H]4CC[C@H](N5CCN(CC6CC6)CC5)CC4)cc3OC)nc2N1C(C)C (stereo partly specified),116 h,80.5 L/kg,11.6 mL/min/kg,6780 min,–
NC(Cc1ccccn1)c1ccccc1 (stereo unspecified),15.1 h,1.62 L/kg,1.8 mL/min/kg,624 min,–
CN(C)CCCN1c2ccccc2Sc2ccccc21,9.6 h,8.1 L/kg,14 mL/min/kg,474 min,0.11
O=C(NCCN1CCN=C1c1ccncc1)Nc1ccc(C(=O)O)cc1,3.52 h,0.35 L/kg,1.67 mL/min/kg,294 min,–
CCC(=O)OCC(=O)[C@@]1(OC(=O)CC)[C@@H](C)C[C@H]2[C@@H]3CC=C4CC(=O)C=C[C@]4(C)[C@@]3(Cl)[C@@H](O)C[C@@]21C,0.1 h,0.29 L/kg,36 mL/min/kg,30 min,0.13
CNC(=O)CC(N)C(=O)NC(C(=O)NC1C(=O)N2C(C(=O)O)C(C)(C)S[C@H]12)c1ccc(O)cc1 (stereo partly specified),1.61 h,0.27 L/kg,2.82 mL/min/kg,87 min,–
